Laboratory results: paper PMC9133015 (Nature Communications, 2022)
Where “and” joins values, the source holds several entries; their conditions need not be identical. Equal entries are not always repeated.

Key:
DYRK4 = molecular target: T1, DYRK4 (Homo sapiens, UniProt Q9NR20); test: DYRKs kinase activity assay (33P-ATP, DYRKtide substrate): DYRK4; format: biochemical; conditions: for % Inhibition DYRK4: duplicates
T1 construct: purchased Reaction Biology Corporation (assay service)
T1 sequence (Q9NR20 1-520): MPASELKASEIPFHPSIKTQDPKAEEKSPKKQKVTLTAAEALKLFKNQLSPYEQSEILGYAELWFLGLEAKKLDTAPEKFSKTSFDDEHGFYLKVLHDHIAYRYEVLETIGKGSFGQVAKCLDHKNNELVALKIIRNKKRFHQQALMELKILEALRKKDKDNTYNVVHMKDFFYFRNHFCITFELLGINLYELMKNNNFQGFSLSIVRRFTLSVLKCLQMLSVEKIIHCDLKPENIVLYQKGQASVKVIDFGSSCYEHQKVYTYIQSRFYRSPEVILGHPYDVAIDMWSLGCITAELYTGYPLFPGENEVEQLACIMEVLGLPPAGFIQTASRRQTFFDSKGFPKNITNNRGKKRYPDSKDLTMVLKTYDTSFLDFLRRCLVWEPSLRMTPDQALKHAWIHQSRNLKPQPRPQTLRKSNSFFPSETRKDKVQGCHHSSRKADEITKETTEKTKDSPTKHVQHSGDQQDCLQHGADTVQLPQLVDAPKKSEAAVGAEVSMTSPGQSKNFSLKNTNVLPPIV

DYRK1B = molecular target: T2, DYRK1B (Homo sapiens, UniProt Q9Y463); test: DYRKs kinase activity assay (33P-ATP, DYRKtide substrate): DYRK1B; format: biochemical
T2 construct: purchased Reaction Biology Corporation (assay service)
T2 sequence (Q9Y463 whole entry): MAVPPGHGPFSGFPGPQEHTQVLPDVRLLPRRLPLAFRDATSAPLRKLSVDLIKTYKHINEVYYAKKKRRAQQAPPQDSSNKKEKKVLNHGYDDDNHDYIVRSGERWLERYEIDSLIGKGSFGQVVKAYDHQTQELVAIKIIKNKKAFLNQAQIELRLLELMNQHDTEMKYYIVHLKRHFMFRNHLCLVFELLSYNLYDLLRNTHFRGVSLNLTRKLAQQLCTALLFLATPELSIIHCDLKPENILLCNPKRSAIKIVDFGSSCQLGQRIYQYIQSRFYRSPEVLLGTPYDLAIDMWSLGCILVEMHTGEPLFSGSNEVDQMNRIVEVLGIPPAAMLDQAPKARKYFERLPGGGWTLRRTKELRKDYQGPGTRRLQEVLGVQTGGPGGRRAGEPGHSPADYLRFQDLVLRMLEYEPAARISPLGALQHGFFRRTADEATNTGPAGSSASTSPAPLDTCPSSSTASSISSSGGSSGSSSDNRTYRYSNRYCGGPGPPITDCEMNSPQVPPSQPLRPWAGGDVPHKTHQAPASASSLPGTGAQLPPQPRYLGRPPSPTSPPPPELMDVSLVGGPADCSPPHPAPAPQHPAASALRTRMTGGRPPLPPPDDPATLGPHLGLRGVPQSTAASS

DYRK1A = molecular target: T3, DYRK1A (Homo sapiens, UniProt Q13627); test: DYRKs kinase activity assay (33P-ATP, DYRKtide substrate): DYRK1A; format: biochemical
T3 construct: purchased Reaction Biology Corporation (assay service)

Pharmacokinetic profiles = format: in vivo; conditions: SD rats, IV 1 mg/kg, 1 mg/kg

Structure (SMILES): CCN1CCN(C(=O)c2ccc(Nc3ncc(F)c(-c4ccc5nc(N(C)C)sc5c4)n3)nc2)CC1 [YK-2-69]
- IC50 (DYRK4): > 1000 nM
- % Inhibition DYRK4 (DYRK4; 0.000762079 µM): 1.66%
- % Inhibition DYRK4 (DYRK4; 0.00228624 µM): -2.93% and -3.51%
- % Inhibition DYRK4 (DYRK4; 0.00685871 µM): 3.37%
- % Inhibition DYRK4 (DYRK4; 0.0205761 µM): 5.66%
- % Inhibition DYRK4 (DYRK4; 0.0617284 µM): 18.67%
- % Inhibition DYRK4 (DYRK4; 0.185185 µM): 25.42%
- % Inhibition DYRK4 (DYRK4; 0.555556 µM): 42.15%
- % Inhibition DYRK4 (DYRK4; 1.66667 µM): 56.81%
- % Inhibition DYRK4 (DYRK4; 5 µM): 64.30%
- inhibition at 0.000762079 µM (DYRK4; read-out: % Inhibition DYRK4, 0.000762079 µM, duplicates): 2.99%
- inhibition at 0.00685871 µM (DYRK4; read-out: % Inhibition DYRK4, 0.00685871 µM, duplicates): 4.77%
- inhibition at 0.0205761 µM (DYRK4; read-out: % Inhibition DYRK4, 0.0205761 µM, duplicates): 7.57%
- inhibition at 0.0617284 µM (DYRK4; read-out: % Inhibition DYRK4, 0.0617284 µM, duplicates): 21.2%
- inhibition at 0.185185 µM (DYRK4; read-out: % Inhibition DYRK4, 0.185185 µM, duplicates): 29.7%
- inhibition at 0.555556 µM (DYRK4; read-out: % Inhibition DYRK4, 0.555556 µM, duplicates): 42.1%
- inhibition at 1.66667 µM (DYRK4; read-out: % Inhibition DYRK4, 1.66667 µM, duplicates): 54.7%
- inhibition at 5 µM (DYRK4; read-out: % Inhibition DYRK4, 5 µM, duplicates): 64.8%
- selectivity over DYRK4 (DYRK4; vs DYRK2): more than 100 fold
- IC50 (DYRK1B): 542 nM
- % Inhibition DYRK1B (DYRK1B; 0.000762079 µM, duplicates): 3.06% and 6.85%
- % Inhibition DYRK1B (DYRK1B; 0.00228624 µM, duplicates): 3.24%
- inhibition at 0.00228624 µM (DYRK1B; 0.00228624 µM, duplicates): 5.73%
- % Inhibition DYRK1B (DYRK1B; 0.00685871 µM, duplicates): 11.00%
- inhibition at 0.00685871 µM (DYRK1B; 0.00685871 µM, duplicates): 7.22%
- % Inhibition DYRK1B (DYRK1B; 0.0205761 µM, duplicates): 13.48%
- inhibition at 0.0205761 µM (DYRK1B; 0.0205761 µM, duplicates): 9.47%
- % Inhibition DYRK1B (DYRK1B; 0.0617284 µM, duplicates): 24.87%
- inhibition at 0.0617284 µM (DYRK1B; 0.0617284 µM, duplicates): 26.4%
- % Inhibition DYRK1B (DYRK1B; 0.185185 µM, duplicates): 44.86%
- inhibition at 0.185185 µM (DYRK1B; 0.185185 µM, duplicates): 44.6%
- % Inhibition DYRK1B (DYRK1B; 0.555556 µM, duplicates): 57.04%
- inhibition at 0.555556 µM (DYRK1B; 0.555556 µM, duplicates): 57.3%
- % Inhibition DYRK1B (DYRK1B; 1.66667 µM, duplicates): 62.26%
- % Inhibition DYRK1B (DYRK1B; 5 µM, duplicates): 64.81%
- inhibition at 5 µM (DYRK1B; 5 µM, duplicates): 65.1%
- inhibition at 1.66667 µM (DYRK1B; read-out: % Inhibition DYRK1B, 1.66667 µM, duplicates): 62.7%
- selectivity over DYRK1B (DYRK1B; vs DYRK2): 60 fold
- IC50 (DYRK1A): > 1000 nM
- % Inhibition DYRK1A (DYRK1A; 0.000508053 µM, duplicates): -3.57% and 0.43%
- % Inhibition DYRK1A (DYRK1A; 0.00152416 µM, duplicates): -1.37% and 1.70%
- % Inhibition DYRK1A (DYRK1A; 0.00457247 µM, duplicates): 3.49% and -1.24%
- % Inhibition DYRK1A (DYRK1A; 0.0137174 µM, duplicates): 0.24% and -4.62%
- % Inhibition DYRK1A (DYRK1A; 0.0411523 µM, duplicates): -1.12% and -1.40%
- % Inhibition DYRK1A (DYRK1A; 0.123457 µM, duplicates): 14.11%
- inhibition at 0.123457 µM (DYRK1A; 0.123457 µM, duplicates): 10.3%
- % Inhibition DYRK1A (DYRK1A; 0.37037 µM, duplicates): 34.28%
- inhibition at 0.37037 µM (DYRK1A; 0.37037 µM, duplicates): 26%
- % Inhibition DYRK1A (DYRK1A; 1.11111 µM, duplicates): 40.80%
- inhibition at 1.11111 µM (DYRK1A; 1.11111 µM, duplicates): 45.5%
- % Inhibition DYRK1A (DYRK1A; 3.33333 µM, duplicates): 66.09%
- inhibition at 3.33333 µM (DYRK1A; 3.33333 µM, duplicates): 64.9%
- % Inhibition DYRK1A (DYRK1A; 10 µM, duplicates): 69.07%
- inhibition at 10 µM (DYRK1A; 10 µM, duplicates): 68.2%
- selectivity over DYRK1A (DYRK1A; vs DYRK2): more than 100 fold
- Con. (individual rats NO.1-3) (Pharmacokinetic profiles; 0.033 h): 1120 ng/mL and 712 ng/mL
- Con. (individual rats NO.1-3) (Pharmacokinetic profiles; 0.083 h): 959 ng/mL and 574 ng/mL
- Con. (individual rats NO.1-3) (Pharmacokinetic profiles; 0.25 h): 611 ng/mL and 402 ng/mL
- Con. (individual rats NO.1-3) (Pharmacokinetic profiles; 0.5 h): 480 ng/mL and 383 ng/mL
- Con. (individual rats NO.1-3) (Pharmacokinetic profiles; 1 h): 355 ng/mL and 310 ng/mL
- Con. (individual rats NO.1-3) (Pharmacokinetic profiles; 2 h): 199 ng/mL and 175 ng/mL
- Con. (individual rats NO.1-3) (Pharmacokinetic profiles; 4 h): 96.9 ng/mL and 91.7 ng/mL
- Con. (individual rats NO.1-3) (Pharmacokinetic profiles; 6 h): 63.9 ng/mL and 64.4 ng/mL
- Con. (individual rats NO.1-3) (Pharmacokinetic profiles; 8 h): 45.3 ng/mL and 36.2 ng/mL
